tested on: JR251 or RBL cells; experiment: Store-operated calcium entry, either JR251 or RBL cells, or both; assay type: cell-based
Experimental: The day prior to performing the assay, RBL-2H3 cells are plated in 50 μL of complete medium in a 384 well plate. Cells are grown at 37° C./6% CO2 overnight and grow to 50-60% confluence by the next day. On the assay day, 1.5 μM Fluo-4-AM dye (Invitrogen) in complete medium is added and incubated for 1 hour at RT. Cells are washed twice in Ca^2+-free HBSS buffer and 35 μL Ca^2+-free HBSS buffer is added to each well. 10 μL of a test compound prepared in a Ca^2+-free HBSS solution at 4.5× of the desired concentration is added to a well and incubated for 5 minutes at RT. 10 μL of thapsigargin prepared in a Ca^2+-free HBSS solution at 5.5× of the desired concentration (5.5 uM) is added to each well and incubated for an additional 25 minutes. The initial baseline fluorescence signal is measured with a FLIPR^384 (Molecular Devices) plate reader. 5 μL of 12× calcium in HBSS (12 mM) is added and changes in cellular fluorescence are measured with the FLIPR^384 plate reader. In each well, the change in the fluorescent signal as a function of time due to calcium entry into the cell is determined by calculating the difference between the fluorescent signal measured 7 seconds after calcium addition and the initial baseline fluorescence signal at time zero (t=0). This parameter is designated Upslope. The IC50 value is calculated as the concentration at which 50% of the Upslope is inhibited.

**Q.** How did the IC50 turn out when O=C(Nc1scc(-c2cc(F)c(Cl)c(F)c2)c1C(=O)O)c1nc2ccccc2s1 [2-(benzo[d]thiazole-2-carboxamido)-4-(4-chloro-3,5-difluorophenyl)thiophene-3-carboxylic acid] was run?
**A.** < 10 µM

**Q.** How did the IC50 turn out when O=C(O)c1c(-c2ccc(Br)cc2)csc1NC(=O)N1Cc2ccccc2C1 [4-(4-bromophenyl)-2-(isoindoline-2-carboxamido)thiophene-3-carboxylic acid] was run?
**A.** < 10 µM

**Q.** How did the IC50 turn out when O=C(O)c1c(-c2ccc(Cl)cc2)csc1NC(=O)[C@@H]1CCc2ccccc2C1 [(R)-4-(4-chlorophenyl)-2-(1,2,3,4-tetrahydronaphthalene-2-carboxamido)thiophene-3-carboxylic acid] was run?
**A.** < 10 µM

**Q.** For O=C(O)c1c(-c2ccc(Cl)cc2)csc1NC(=O)C1Cc2ccccc2N1 (stereo not shown) [4-(4-chlorophenyl)-2-(indoline-2-carboxamido)thiophene-3-carboxylic acid], which IC50 is on record?
**A.** < 10 µM

**Q.** With O=C(Nc1scc(-c2ccc(Cl)cc2)c1C(=O)O)c1cscn1 [4-(4-chlorophenyl)-2-(thiazole-4-carboxamido)thiophene-3-carboxylic acid] as the compound, how does the IC50 read?
**A.** < 10 µM

**Q.** Which IC50 does the source give for Cc1cccc2ncc(C(=O)Nc3scc(-c4ccc(Cl)cc4)c3C(=O)O)nc12 [4-(4-chlorophenyl)-2-(8-methylquinoxaline-2-carboxamido)thiophene-3-carboxylic acid] here?
**A.** < 10 µM

**Q.** How did the IC50 turn out when O=C(Nc1scc(-c2cc3cc(O)ccc3o2)c1C(=O)O)c1cc2ccccc2o1 [2-(benzofuran-2-carboxamido)-4-(5-hydroxybenzofuran-2-yl)thiophene-3-carboxylic acid] was run?
**A.** < 10 µM

**Q.** For Cc1ccc(-c2csc(NC(=O)c3nc4cc(Br)ccc4o3)c2C(=O)O)c(F)c1F [2-(5-bromobenzo[d]oxazole-2-carboxamido)-4-(2,3-difluoro-4-methylphenyl)thiophene-3-carboxylic acid], which IC50 is on record?
**A.** < 10 µM

**Q.** For O=C(CCc1ccc(F)c(F)c1)Nc1scc(-c2ccc(Br)cc2)c1C(=O)O [4-(4-bromophenyl)-2-(3-(3,4-difluorophenyl)propanamido)thiophene-3-carboxylic acid], which IC50 is on record?
**A.** < 10 µM

**Q.** Which IC50 does the source give for Cc1ccc(-c2csc(NC(=O)c3cc4ccccn4n3)c2C(=O)O)c(F)c1F [4-(2,3-difluoro-4-methylphenyl)-2-(pyrazolo[1,5-a]pyridine-2-carboxamido)thiophene-3-carboxylic acid] here?
**A.** < 10 µM

**Q.** How did the IC50 turn out when Cc1ccc(C(=O)Nc2scc(-c3ccc(Br)cc3)c2C(=O)O)cn1 [4-(4-bromophenyl)-2-(6-methylnicotinamido)thiophene-3-carboxylic acid] was run?
**A.** < 10 µM

**Q.** For O=C(Nc1scc(-c2ccc(Br)cc2)c1C(=O)O)c1ccc2ccccc2n1 [4-(4-bromophenyl)-2-(quinoline-2-carboxamido)thiophene-3-carboxylic acid], which IC50 is on record?
**A.** < 10 µM

**Q.** How did the IC50 turn out when O=C(Nc1scc(-c2ccc(Cl)cc2)c1C(=O)O)c1cc2c(Cl)cc(Cl)cc2[nH]1 [4-(4-chlorophenyl)-2-(4,6-dichloro-1H-indole-2-carboxamido)thiophene-3-carboxylic acid] was run?
**A.** < 10 µM

**Q.** How did the IC50 turn out when O=C(Nc1scc(-c2ccc(Cl)cc2)c1C(=O)O)c1nc2ccccc2o1 [2-(benzo[d]oxazole-2-carboxamido)-4-(4-chlorophenyl)thiophene-3-carboxylic acid] was run?
**A.** < 10 µM

**Q.** O=C(O)c1c(-c2ccc(Cl)cc2)csc1NC(=O)C(F)Cc1ccccc1Cl (stereo not shown) [4-(4-chlorophenyl)-2-(3-(2-chlorophenyl)-2-fluoropropanamido)thiophene-3-carboxylic acid] was tested. Which IC50 did it give?
**A.** < 10 µM

**Q.** N#CC(Cc1ccccc1Cl)C(=O)Nc1scc(-c2ccc(Cl)cc2)c1C(=O)O (stereo not shown) [4-(4-chlorophenyl)-2-(3-(2-chlorophenyl)-2-cyanopropanamido)thiophene-3-carboxylic acid] was tested. Which IC50 did it give?
**A.** < 10 µM

**Q.** How did the IC50 turn out when Cc1c(S(=O)(=O)c2ccc(Cl)cc2)csc1C(=O)Nc1scc(-c2ccc(Br)cc2)c1C(=O)O [4-(4-bromophenyl)-2-(4-(4-chlorophenylsulfonyl)-3-methylthiophene-2-carboxamido)thiophene-3-carboxylic acid] was run?
**A.** < 10 µM

**Q.** How did the IC50 turn out when O=C(Nc1scc(-c2ccc(Cl)cc2)c1C(=O)O)c1cnc2ccccc2n1 [4-(4-chlorophenyl)-2-(quinoxaline-2-carboxamido)thiophene-3-carboxylic acid] was run?
**A.** < 10 µM

**Q.** With Cc1ccc(C(=O)Nc2scc(-c3ccc(Cl)cc3)c2C(=O)O)cn1 [4-(4-chlorophenyl)-2-(6-methylnicotinamido)thiophene-3-carboxylic acid] as the compound, how does the IC50 read?
**A.** < 10 µM

**Q.** For O=C(Nc1scc(-c2ccc(Br)cc2F)c1C(=O)O)c1nc2ccccc2o1 [2-(benzo[d]oxazole-2-carboxamido)-4-(4-bromo-2-fluorophenyl)thiophene-3-carboxylic acid], which IC50 is on record?
**A.** < 10 µM

**Q.** For O=C(CCc1ccccc1Cl)Nc1scc(-c2ccc(Cl)cc2)c1C(=O)O [4-(4-chlorophenyl)-2-(3-(2-chlorophenyl)propanamido)thiophene-3-carboxylic acid], which IC50 is on record?
**A.** < 10 µM

**Q.** For O=C(Nc1scc(-c2ccc(Cl)cc2)c1C(=O)O)c1ccc2ncoc2c1 [2-(benzo[d]oxazole-6-carboxamido)-4-(4-chlorophenyl)thiophene-3-carboxylic acid], which IC50 is on record?
**A.** < 10 µM

**Q.** For N#Cc1ccc(-c2csc(NC(=O)c3nc4ccccc4o3)c2C(=O)O)c(F)c1 [2-(benzo[d]oxazole-2-carboxamido)-4-(4-cyano-2-fluorophenyl)thiophene-3-carboxylic acid], which IC50 is on record?
**A.** < 10 µM

**Q.** How did the IC50 turn out when O=C(Nc1scc(-c2ccc(Cl)cc2)c1C(=O)O)OCc1ccccc1 [2-(benzyloxycarbonylamino)-4-(4-chlorophenyl)thiophene-3-carboxylic acid] was run?
**A.** < 10 µM

**Q.** Which IC50 does the source give for O=Cc1ccc(-c2csc(NC(=O)c3nc4ccccc4o3)c2C(=O)O)cc1 [2-(benzo[d]oxazole-2-carboxamido)-4-(4-formylphenyl)thiophene-3-carboxylic acid] here?
**A.** < 10 µM

**Q.** For O=C(CCc1ccc(F)cc1F)Nc1scc(-c2ccc(Br)cc2)c1C(=O)O [4-(4-bromophenyl)-2-(3-(2,4-difluorophenyl)propanamido)thiophene-3-carboxylic acid], which IC50 is on record?
**A.** < 10 µM

**Q.** Which IC50 does the source give for O=C(Nc1scc(-c2cc(F)c(Cl)cc2F)c1C(=O)O)c1nc2ccccc2o1 [2-(benzo[d]oxazole-2-carboxamido)-4-(4-chloro-2,5-difluorophenyl)thiophene-3-carboxylic acid] here?
**A.** < 10 µM

**Q.** For O=C(O)c1c(-c2ccc(Cl)cc2)csc1NC(=O)[C@@H](F)Cc1ccccc1Cl [(S)-4-(4-chlorophenyl)-2-(3-(2-chlorophenyl)-2-fluoropropanamido)thiophene-3-carboxylic acid], which IC50 is on record?
**A.** < 10 µM

**Q.** COc1cccc2cc(-c3csc(NC(=O)c4nc5ccccc5o4)c3C(=O)O)oc12 [2-(benzo[d]oxazole-2-carboxamido)-4-(7-methoxybenzofuran-2-yl)thiophene-3-carboxylic acid] was tested. Which IC50 did it give?
**A.** < 10 µM

**Q.** For Cc1ccc(-c2csc(NC(=O)c3nc4cc(F)c(F)cc4o3)c2C(=O)O)c(F)c1F [4-(2,3-difluoro-4-methylphenyl)-2-(5,6-difluorobenzo[d]oxazole-2-carboxamido)thiophene-3-carboxylic acid], which IC50 is on record?
**A.** < 10 µM

**Q.** With Cc1ccc(-c2csc(NC(=O)c3nc4cccc(F)c4o3)c2C(=O)O)c(F)c1F [4-(2,3-difluoro-4-methylphenyl)-2-(7-fluorobenzo[d]oxazole-2-carboxamido)thiophene-3-carboxylic acid] as the compound, how does the IC50 read?
**A.** < 10 µM

**Q.** For Cc1cc(-c2csc(NC(=O)c3nc4ccccc4o3)c2C(=O)O)c(F)cc1Cl [2-(benzo[d]oxazole-2-carboxamido)-4-(4-chloro-2-fluoro-5-methylphenyl)thiophene-3-carboxylic acid], which IC50 is on record?
**A.** < 10 µM

**Q.** How did the IC50 turn out when O=C(O)c1c(-c2ccc(Cl)cc2)csc1NC(=O)C(F)Cc1c(Cl)cccc1Cl (stereo not shown) [4-(4-chlorophenyl)-2-(3-(2,6-dichlorophenyl)-2-fluoropropanamido)thiophene-3-carboxylic acid] was run?
**A.** < 10 µM

**Q.** For O=C(Nc1scc(-c2ccc(Cl)cc2)c1C(=O)O)c1ccc2snnc2c1 [2-(benzo[d][1,2,3]thiadiazole-5-carboxamido)-4-(4-chlorophenyl)thiophene-3-carboxylic acid], which IC50 is on record?
**A.** < 10 µM

**Q.** O=C(Nc1scc(-c2ccc(Cl)cc2)c1C(=O)O)c1nc2c(F)cc(F)cc2o1 [4-(4-chlorophenyl)-2-(4,6-difluorobenzo[d]oxazole-2-carboxamido)thiophene-3-carboxylic acid] was tested. Which IC50 did it give?
**A.** < 10 µM

**Q.** With O=C(O)c1c(-c2ccc(Cl)cc2)csc1NC(=O)C1Cc2ccc(F)cc2C1 (stereo not shown) [4-(4-chlorophenyl)-2-(5-fluoro-2,3-dihydro-1H-indene-2-carboxamido)thiophene-3-carboxylic acid] as the compound, how does the IC50 read?
**A.** < 10 µM

**Q.** For O=C(Nc1scc(-c2ccc(Cl)cc2)c1C(=O)O)c1ccc(Cl)nc1Cl [4-(4-chlorophenyl)-2-(2,6-dichloronicotinamido)thiophene-3-carboxylic acid], which IC50 is on record?
**A.** < 10 µM

**Q.** O=C(Nc1scc(-c2ccc(Cl)cc2)c1C(=O)O)c1ccc([N+](=O)[O-])o1 [4-(4-chlorophenyl)-2-(5-nitrofuran-2-carboxamido)thiophene-3-carboxylic acid] was tested. Which IC50 did it give?
**A.** < 10 µM

**Q.** For O=C(NCC1CCCCC1)Nc1scc(-c2ccc(Cl)cc2)c1C(=O)O [4-(4-chlorophenyl)-2-(3-(cyclohexylmethyl)ureido)thiophene-3-carboxylic acid], which IC50 is on record?
**A.** < 10 µM

**Q.** For Cn1nc(C(=O)Nc2scc(-c3ccc(Cl)cc3)c2C(=O)O)cc1-c1ccccc1 [4-(4-chlorophenyl)-2-(1-methyl-5-phenyl-1H-pyrazole-3-carboxamido)thiophene-3-carboxylic acid], which IC50 is on record?
**A.** < 10 µM

Reference: patent publication US8394848B2, “Compounds that modulate intracellular calcium” (Calcimedica, Inc., priority 2008, dated 2013)
